Data on 1 molecule can be found in patent US9670261B2 (Sanofi, priority 2012, dated 2017).

One data set deals with T1, human GIP receptor (Homo sapiens, UniProt P48546).
T1 construct: expressed in transfected cells
T1 sequence (P48546 22-466): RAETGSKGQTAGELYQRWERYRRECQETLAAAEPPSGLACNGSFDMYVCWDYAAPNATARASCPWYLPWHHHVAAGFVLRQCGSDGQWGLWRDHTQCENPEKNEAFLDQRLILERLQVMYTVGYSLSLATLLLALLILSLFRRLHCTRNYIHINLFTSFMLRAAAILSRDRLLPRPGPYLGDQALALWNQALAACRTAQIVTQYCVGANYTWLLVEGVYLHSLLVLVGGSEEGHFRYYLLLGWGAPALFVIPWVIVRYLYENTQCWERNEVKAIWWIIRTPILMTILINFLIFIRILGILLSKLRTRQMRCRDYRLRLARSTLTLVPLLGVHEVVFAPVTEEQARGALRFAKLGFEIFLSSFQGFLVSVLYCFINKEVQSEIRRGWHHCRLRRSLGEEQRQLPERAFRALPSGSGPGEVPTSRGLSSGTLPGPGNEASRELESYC
In words: cAMP response (HTRF) of HEK-293 cells stably expressing human GIP receptor. It is filed as cell-based. As to conditions: Table 7; cAMP formation; read-out: EC50 hGIP R. The procedure, abridged: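 Intracellular cAMP is quantified by HTRF following a 30-minute room-temperature incubation of cell suspensions (400000 cells/ml) with test compound in HBSS, 20 mM HEPES, 0.1% BSA and 2 mM IBMX.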
(In general: TR-FRET usually uses a lanthanide donor and a delayed reading to cut background.)

The test system of another data set is female NMRI-mice. In words: Automated assessment of 22-hours feed intake in mice. The class given is in vivo. As to conditions: 0.1 mg/kg s.c. The protocol:
Female NMRI-mice of a body weight between 20 and 30 g were used. Mice were adapted to housing conditions for at least one week and for at least one day single-caged in the assessment equipment, when basal data were recorded simultaneously. On the study day, test product was administered subcutaneously close to the lights-off phase (12 h lights off) and assessment of feed consumption was directly started afterwards. Assessment included continued monitoring over 22 hours, while data are processed as mean over every 30 min. Repetition of this procedure over several days was possible. Restriction of assessment to 22 hours was for practical reasons to allow for reweighing of animals, refilling of feed and water and drug administration between procedures. Results could be assessed as cumulated data over 22 hours or differentiated to 30 min intervals. […] Statistical analyses were performed with Everstat 6.0 by two-way ANOVA on repeated measures and Dunnett's post-hoc analyses. Differences were considered statistically significant at the p<0.05 level. […] Lights-off phase (dark phase) started 4 hours later. […].

For data set [1], the system named is female leptin-receptor deficient diabetic db/db mice. In words: Blood glucose and HbA1c in leptin-receptor deficient diabetic db/db mice (method 3). The class given is in vivo. As to conditions: single 100 μg/kg s.c., fed db/db mice. From the text:
Female BKS.Cg-m+/+Leprdb/J (db/db) and BKS.Cg-m+/+Leprdb/+(lean control) mice were obtained from Charles River Laboratories, Germany, at an age of 9-10 weeks. The animals were housed in groups in a specific pathogen-free barrier facility on a 12-h light/dark cycle with free access to water and rodent-standard chow. After 1 week of acclimatization, blood samples were drawn from the tail without anaesthesia and blood glucose (method: d-glucose hexokinase, hemolysate, AU640 Beckman Coulter) and HbA1c level (method: hemolysate, Cobas6000 c501, Roche Diagnostics, Germany) were determined. […] The volume of administration was 5 mL/kg. The animals had access to water and chow during the experiment, food consumption was determined at all time points of blood sampling. […] Blood sampling was performed by tail incision without anaesthesia. […] At the end of the study, blood samples (tail, no anaesthesia) were analyzed for glucose and HbA1c. […] Statistical analyses were performed with Everstat 6.0 by repeated measures two-way ANOVA and Dunnett's post-hoc analyses. Differences versus vehicle-treated db/db control mice were considered statistically significant at the p<0.05 level. […] At predefined time points, more blood samples were taken to measure blood glucose and generate the blood glucose profile over 24 h. […] Blood glucose and HbA1c were determined before start of treatment and at the end of the study after 4 weeks of treatment. […] Before treatment started, no significant differences in blood glucose levels could be detected between db/db groups, only the lean control animals had significant lower glucose levels. During the 4 weeks of treatment, glucose levels increased in the vehicle-treated db/db control group, indicating a worsening of the diabetic situation.

Another data set can be described thus: in vivo. As to conditions: mouse, sc, 1 mg/kg.

Molecules are shown by their SMILES. pEC50: −log10 of the molar value. Some results are limits rather than exact numbers.

Protocol for in vivo: Mice were dosed 1 mg/kg subcutaneously (s.c.). The mice were sacrified and blood samples were collected after 0.25, 0.5, 1, 2, 4, 8, 16 and 24 hours post application. Plasma samples were analyzed after protein precipitation via liquid chromatography mass spectrometry (LC/MS). PK parameters and half-life were calculated using WinonLin Version 5.2.1 (non-compartment model).

In the case of `CCCCCCCCCCCCCCCC(=O)N[C@@H](CCC(=O)NCCCC[C@H](NC(=O)[C@H](CCC(N)=O)NC(=O)[C@@H](NC(=O)[C@H](CO)NC(=O)[C@H](CC(C)C)NC(=O)[C@H](CC(=O)O)NC(=O)[C@H](CO)NC(=O)[C@@H](NC(=O)[C@H](Cc1ccccc1)NC(=O)[C@@H](NC(=O)CNC(=O)[C@H](CCC(=O)O)NC(=O)C(C)(C)NC(=O)[C@@H](N)Cc1ccc(O)cc1)[C@@H](C)O)[C@@H](C)O)[C@@H](C)CC)C(=O)N[C@@H](CC(=O)O)C(=O)N[C@@H](CCCCN)C(=O)N[C@@H](CCCNC(=N)N)C(=O)N[C@@H](C)C(=O)N[C@@H](C)C(=O)N[C@@H](CCC(N)=O)C(=O)N[C@@H](CC(=O)O)C(=O)N[C@@H](Cc1ccccc1)C(=O)N[C@H](C(=O)N[C@@H](CCC(=O)O)C(=O)N[C@@H](Cc1c[nH]c2ccccc12)C(=O)N[C@@H](CC(C)C)C(=O)N[C@@H](CCCCN)C(=O)N[C@@H](CC(N)=O)C(=O)NCC(=O)NCC(=O)N1CCC[C@H]1C(=O)N[C@@H](CO)C(=O)N[C@@H](CO)C(=O)NCC(=O)N[C@@H](C)C(=O)N1CCC[C@H]1C(=O)N1CCC[C@H]1C(=O)N1CCC[C@H]1C(=O)N[C@@H](CO)C(N)=O)[C@@H](C)CC)C(=O)O` [SEQ ID NO: 12, Y-Aib-E-G-T-F-T-S-D-L-S-I-Q-K(γE-x53)-DKRAAQDFIEWLKNGGPSSGAPPPS-NH2], at human GIP receptor, the pEC50 (commonly the EC50 on a negative log10 scale, so that one unit is a factor of ten) is 11.05. In addition, the “reduction of feed intake after 22 hours” value with female NMRI-mice is 71%. The solubility at 2 h in the data set “physchem” (pH 4.5) and in “physchem” (pH 7.4) was more than 1000 µg/mL throughout. In addition, the “blood glucose compared to db/db control mice, 24 h profile” value in data set [1] is listed as “significant decrease in blood glucose”. In the data set “in vivo”, the Cmax (usually the maximum level reached in the sampled fluid or tissue) worked out at 3790 ng/mL. Besides, the half-life (commonly how long it takes for the measured level to halve) in the data set “in vivo” was 2.8 h.
